The record followed here is US5985822A, “Inhibition of glial cell proliferation with N-CAM homophilic peptides” (The Scripps Research Institute, priority 1995, dated 1999).

Read-outs that look alike come from different tables or passages of the source.

The assay concerns rat forebrain astrocytes in primary culture. Put plainly: Astrocyte proliferation assay ([3H]-thymidine incorporation normalized to [35S]-methionine). To be noted: for effect of drug on the ability of N-CAM to inhibit astrocyte proliferation (in words): drug in the presence of N-CAM; for Drug Alone: means of triplicate (Table 5). Type of assay: cell-based. The protocol: Primary cultures of astrocytes were prepared from the forebrains of 4-5 day old neonatal rats. After decapitation and removal of the forebrains from the skull, the meninges were carefully peeled off, and forebrain tissue was triturated in sterile phosphate buffered saline (PBS) using firepolished pipettes. The resulting suspension of tissue fragments was incubated in Hank's balanced salt solution (Gibco BRL) with 2.5 mg/ml trypsin, 1 mM EDTA and 0.1 mg/ml DNase (Boehringer) at 37° C. for 15 minutes. […] The pellet was resuspended in serum free medium (SFM) consisting of Dulbecco's Modified Eagle Medium (D-MEM), 2 mM L-glutamine, 50 U/ml penicillin G sodium and 50 μg/ml streptomycin sulfate (all from Gibco BRL) supplemented by 10% (vol/vol) fetal bovine serum (FBS). The cells were transferred to a standard 100 mm tissue culture dish (Falcon) and incubated at 37° C. for 1-2 hours. After mild shaking, the supernatant containing unattached cells was transferred to a 100 mm collagen-coated dish. […] Cell samples were checked regularly for the expression of GFAP, a marker for astrocytes.
After cell attachment, the culture medium was exchanged for SFM. In antisense experiments, oligonucleotides were added at the same time (T=0). […] After another 12 hours (at T=60), [^3 H]-thymidine (New England Nuclear, 20 Ci/mmol) was added (0.38 μM, 10 μCi/ml). Following an additional 12 hours (T=72), the wells were drained, counts precipitated by ice-cold […] trichloroacetic acid, and the plates left to dry. Counts were solubilized overnight by adding 100 μl 1 N KOH to each well, neutralized with 100 μl 1 N HCl, transferred to liquid scintillation vials and counted in 3 ml of Beckman Ready Safe liquid scintillation cocktail on a Packard 1600 TR counter. […] In this paper, proliferation is expressed as [^3 H]-thymidine incorporation normalized to [35]-methionine incorporation and calculated as [^3 H] dpm/ [35] dpm.

As to `CCCCC/C=C\C/C=C\C/C=C\C/C=C\CCCC(=O)O` [Arachidonic Acid, arachidonic acid], the “effect of drug on the ability of N-CAM to inhibit astrocyte proliferation (in words)” value was “had no effect on the ability of N-CAM to inhibit astrocyte proliferation”. In addition, the “[3H]-thymidine incorporation, Drug + N-CAM” value (drug 10 μM plus N-CAM 2 μg/ml) stood at 60 ± 12 % SFM Ctrl. Further, the “[3H]-thymidine incorporation, Drug alone” value (drug 10 μM, 2×10^5 cells/ml) came to 107 ± 10 % SFM Ctrl.

For the molecule `C=C[C@@]1(C)CC(=O)[C@]2(O)[C@@]3(C)[C@@H](O)CCC(C)(C)[C@@H]3[C@H](O)[C@H](OC(C)=O)[C@@]2(C)O1` [Forskolin, forskolin], the “[3H]-thymidine incorporation, Drug alone” value was determined as 73 ± 2 % SFM Ctrl (drug 1 μM, 2×10^5 cells/ml) and 32 ± 6 % SFM Ctrl (drug 10 μM, 2×10^5 cells/ml). For the same molecule, the “effect of drug on astrocyte proliferation (in words)” value (drug alone, astrocyte cultures) is “blocks proliferation of astrocytes in culture”.

Regarding `C[C@]12O[C@H](C[C@]1(O)C(=O)O)n1c3ccccc3c3c4c(c5c6ccccc6n2c5c31)CNC4=O` [K252b], the “effect of drug on the ability of N-CAM to inhibit astrocyte proliferation (in words)” value is “allowed the astrocytes cells to grow normally”. Besides, under “drug 100 nM plus N-CAM 2 μg/ml”, the “[3H]-thymidine incorporation, Drug + N-CAM” value was determined as 85 ± 5 % SFM Ctrl. Moreover, the “[3H]-thymidine incorporation, Drug alone” value (drug 100 nM, 2×10^5 cells/ml) is recorded as 98 ± 17 % SFM Ctrl. Further, the “[3H]-thymidine incorporation, Drug + N-CAM” value (drug 200 nM plus N-CAM 2 μg/ml) amounted to 64 ± 1 % SFM Ctrl. Further, where the note is “drug 200 nM, 2×10^5 cells/ml”, the “[3H]-thymidine incorporation, Drug alone” value was 78 ± 15 % SFM Ctrl.

For the molecule `COC(=O)C=Cc1cc(O)ccc1O` [Methyl 2,5-dihydroxycinnamate, methyl 2,5-dihydroxycinnamate], the “Drug + Ig3” value (drug 0.25 μg/ml plus Ig3 2 μg/ml (Table 5)) was 59 % of SFM Control. For the same molecule, the “Drug + N-CAM” value (drug 0.25 μg/ml plus N-CAM 2 μg/ml (Table 5)) is reported as 60 % of SFM Control. In addition, for the setting “drug 0.25 μg/ml, 2×10^5 cells/ml”, the “Drug Alone” value is reported as 65 % of SFM Control.

With `CCCCCCCCCCCCCC(=O)O[C@@H]1[C@@H](C)[C@@]2(O)[C@@H](C=C(CO)C[C@]3(O)C(=O)C(C)=C[C@@H]23)[C@@H]2C(C)(C)[C@]12OC(C)=O` [PMA], the “effect of drug on astrocyte proliferation (in words)” value is reported as “strong mitogenic response”. The “[3H]-thymidine incorporation, Drug alone” value (drug 10 nM, 2×10^5 cells/ml) turned out to be 138 ± 16 % SFM Ctrl. The “[3H]-thymidine incorporation, Drug + N-CAM” value (drug 100 nM plus N-CAM 2 μg/ml) stood at 228 % SFM Ctrl. The “[3H]-thymidine incorporation, Drug alone” value (drug 100 nM, 2×10^5 cells/ml) is 268 ± 34 % SFM Ctrl.

Pertussis Toxin: the “effect of drug on astrocyte proliferation (in words)” value is recorded as “slightly inhibited astrocyte proliferation” and the “effect of drug on the ability of N-CAM to inhibit astrocyte proliferation (in words)” value is recorded as “N-CAM was still able to inhibit proliferation”. The “[3H]-thymidine incorporation, Drug + N-CAM” value (drug 1 μg/ml plus N-CAM 2 μg/ml) was found to be 57 ± 13 % SFM Ctrl. For the same molecule, the “[3H]-thymidine incorporation, Drug alone” value (drug 1 μg/ml, 2×10^5 cells/ml) is on record as 67 ± 13 % SFM Ctrl. Also, the “[3H]-thymidine incorporation, Drug + N-CAM” value (drug .5 μg/ml plus N-CAM 2 μg/ml) is recorded as 53 ± 9 % SFM Ctrl. For the setting “drug .5 μg/ml, 2×10^5 cells/ml”, the “[3H]-thymidine incorporation, Drug alone” value was 74 ± 20 % SFM Ctrl.

“bFGF: basic fibroblast growth factor, Upstate Biotechnology Incorporated”: the “proliferation as compared to cultures in SFM” value (20 ng/ml bFGF, n=12) turned out to be 347±56%.

Take calphostin C: the “effect of drug on astrocyte proliferation (in words)” value is listed as “inhibits proliferation”. In addition, the “[3H]-thymidine incorporation, Drug alone” value (drug 0.1 μM, 2×10^5 cells/ml) was 111 ± 35 % SFM Ctrl. Also, for the setting “drug 0.5 μM, 2×10^5 cells/ml”, the “[3H]-thymidine incorporation, Drug alone” value came to 54 ± 35 % SFM Ctrl.

As for mastoparan, the “effect of drug on astrocyte proliferation (in words)” value is on record as “stimulated astrocyte proliferation” and the “effect of drug on the ability of N-CAM to inhibit astrocyte proliferation (in words)” value was “not inhibited by the concentration of N-CAM used”. Further, the “Drug + Ig3” value (drug 50 μM plus Ig3 2 μg/ml (Table 5)) is recorded as 192.5 % of SFM Control. Moreover, the “[3H]-thymidine incorporation, Drug + N-CAM” value (drug 50 μM plus N-CAM 2 μg/ml (Table 4)) is reported as 205 ± 30 % SFM Ctrl. Besides, the “Drug + N-CAM” value (drug 50 μM plus N-CAM 2 μg/ml (Table 5)) is 202.5 % of SFM Control. Also, for the setting “drug 50 μM, 2×10^5 cells/ml (Table 4)”, the “[3H]-thymidine incorporation, Drug alone” value turned out to be 213 ± 47 % SFM Ctrl. Where the note is “drug 50 μM, 2×10^5 cells/ml”, the “Drug Alone” value is 210 % of SFM Control.
